In series [1] the test system is HAdV5-GFP. Briefly: Plaque assay (inhibition of HAdV plaque formation). It is filed as cell-based, HAdV-5. Conditions: for Selectivity index (SI): ratio of CC50 to IC50 in plaque assay; for inhibition at 10 µM: read-out: Plaque Assay (%) Inhibition (10 μM). Put shortly:
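Cells at 80-90% confluency infected with HAdV5-GFP at 0.06 vp/cell, rocked 2 h at 37° C, then washed with PBS. Compounds tested at 10 μM and in dose-response from 10 to 0.3 μM, included in the post-infection mixture.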

The nature of series [2]: Cytotoxicity assay (AlamarBlue). To be noted: human, A549 cells. The protocol:
(§1) Cytotoxicity Assay. The cytotoxicity of the compounds was analyzed by commercial kit AlamarBlue® (Invitrogen, Ref. DAL1025). A549 cells at a density of 5×10^3 cells per well in 96-well plates were seeded. […] Cells were then incubated at 37° C. for 48 h following the kit protocol. The cytotoxic concentration 50 (CC50) value was obtained using the statistical package GraphPad Prism. This assay was performed in duplicate.
In general terms: Resazurin is reduced to fluorescent resorufin, in cell work by metabolically active cells.

Series [3] concerns A549 cells. The experiment in a line: Cytotoxicity assay (AlamarBlue). To be noted: read-out: CC50 (μM), cytotoxic concentration 50%; A549 cell line, 48 h. The method, then:
as §1

Series [4] has as its system HAdV5-GFP. The experiment in a line: Entry assay (HAdV5-mediated GFP expression). It is filed as cell-based, HAdV-5. To be noted: for inhibition at 50 µM: A549, 48 h, read-out: (%) Inhibition Entry Assay (50 μM). The method, then: Entry Assay. The anti-HAdV activity was measured in an entry assay using human A549 epithelial cells (3×10^5 cells/well in coming black wall, clear bottom 96-well plates) infected with HAdV5-GFP (2000 vp/cell) in the presence 50 μM of the candidates and in a dose-response assay. A standard infection curve was generated in parallel by infecting cells in the absence of compounds using serial 2-fold dilutions of virus. All reactions were done in triplicate. Cells, virus, and drugs were incubated for 48 h at 37° C. and 5% CO2.

Series [5] relates to HAdV5-GFP. The experiment in a line: Time of addition assay. Conditions: FIG. 2; 10 μM. It counts as cell-based, HAdV-5. The method, then: Time of Addition Curve Study. […] Parallel samples of HAdV-5 were incubated with or without the selected derivatives on ice for 1 h. […] The derivatives were added at the indicated time points before or during this incubation. After a total of 2 h at 37° C., cells were incubated for an additional 48 h at 37° C. and 5% CO2 before being analyzed for GFP expression using the Typhoon 9410 imager (GE Healthcare Life Sciences) as above.
Time of Addition Assay. […] Parallel samples of HAdV-5 were incubated with or without the selected derivatives on ice for 1 h. […] The derivatives were added at the indicated time points before or during this incubation. After a total of 2 h at 37° C., cells were incubated for an additional 48 h at 37° C. and 5% CO2 before being analyzed for GFP expression using the Typhoon 9410 imager (GE Healthcare Life Sciences) as above.
Time of Addition Assay. […] Parallel samples of HAdV-5 were incubated with or without the selected compounds on ice for 1 h. […] Compounds 153 and 161 were added at the indicated time points before or during this incubation. After a total of 2 h at 37° C., cells were incubated for an additional 48 h at 37° C. and 5% CO2 before being analyzed for GFP expression using the Typhoon 9410 imager (GE Healthcare Life Sciences) as above.

Series [6] concerns wild-type HAdV5. Briefly: Nuclear-associated HAdV genomes (real-time PCR). It is filed as cell-based, HAdV-5. The method, then:
(§2) Nuclear-Associated HAdV Genomes. The nuclear delivery of HAdV genomes was assessed by real-time PCR following nuclear isolation from infected cells. […] Forty-five minutes after infection, A549 cells were trypsinized and collected and then washed twice with PBS. Then, cytoplasmic and nuclear fractions were separated using a hypotonic buffer solution and NP-40 detergent. The cell pellet was resuspended in 500 μL of 1×hypotonic buffer (20 mM Tris-HCl pH 7.4, 10 mM NaCl, 3 mM MgCl2) and incubated for 15 min at 4° C. Then, 25 μL of NP-40 was added and the samples were vortexed. The homogenates were centrifuged for 10 min at 835 g at 4° C. Following the removal of the cytoplasmic fraction (supernatant), HAdV DNA was isolated from the nuclear fraction (pellet) and from the cytoplasmic fraction using the QIAamp DNA Mini Kit (QIAGEN, Valencia, Calif.).
as §2, with “E.Z.N.A.® Tissue” for “QIAamp”, “DNA” for “DNA Mini”, “(Omega Bio-tek, Norcross, Ga.).” for “(QIAGEN, Valencia, Calif.).”
For orientation: In qPCR the cycle at which signal appears reflects the starting amount.

Series [7] has as its system wild-type HAdV5. Briefly: HAdV DNA quantification by real-time PCR (DNA replication). It counts as cell-based, HAdV-5. Conditions: 24 h. The protocol: DNA Quantification by Real-Time PCR. […] Infected cells were incubated 24 h at 37° C. in 500 μL of complete DMEM containing 25 μM of either compounds or the same volume of DMSO (positive control). All samples were done in duplicate. After 24 h of incubation at 37° C., DNA was purified from the cell lysate with the QIAamp DNA Mini Kit (QIAGEN, Valencia, Calif.) following the manufacturer's instructions. TaqMan primers and probes for a common region of the HAdV5 were designed with the GenScript Real-Time PCR (TaqMan) Primer Design software (GenScript). […] Real-time PCR mixtures consisted of 9.5 μL of the purified DNA, AQ1 and AQ2 at a concentration of 200 nM each and Probe at a concentration of 50 nM in a total volume of 25 μL. The PCR cycling protocol was 95° C. for 3 min followed by 40 cycles of 95° C. for 10 s and 60° C. for 30 s. Human glyceraldehyde-3-phosphate dehydrogenase (GAPDH) gene was used as internal control. Oligonucleotides sequences for GAPDH and conditions were those previously reported by Henke-Gendo et al. (2012).
For quantification, gene fragments from hexon, and GAPDH were cloned into the pGEM-T Easy vector (Promega) and known concentrations of template were used to generate a standard curve in parallel for each experiment. All assays were performed in thermal cycler LightCycler® 96 System (Roche).
(§3) HAdV DNA Quantification by Real-Time PCR. […] All samples were done in duplicate. After 24 h of incubation at 37° C., DNA was purified from the cell lysate with the E.Z.N.A.® Tissue DNA Kit (Omega Bio-tek, Norcross, Ga.) following the manufacturer's instructions. TaqMan primers and probes for a common region of the HAdV5 were designed with the GenScript Real-Time PCR (TaqMan) Primer Design software (GenScript). […] Real-time PCR mixtures consisted of 9.5 μL of the purified DNA, AQ1 and AQ2 at a concentration of 200 nM each and Probe at a concentration of 50 nM in a total volume of 25 μL. The PCR cycling protocol was 95° C. for 3 min followed by 40 cycles of 95° C. for 10 s and 60° C. for 30 s. Human glyceraldehyde-3-phosphate dehydrogenase (GAPDH) gene was used as internal control. Oligonucleotides sequences for GAPDH and conditions were those previously reported by Henke-Gendo et al. (2012).
as §3, with “DNA” for “HAdV DNA”

Where [8] appears, read: read-out: Plaque Assay IC50 (μM), HAdV5-GFP, low MOI, 293β5 cell line.
Setting [9] is: HAdV5-GFP, low MOI, 293β5 cell line, read-out: Plaque Assay IC50.

Consider 9 molecules from patent publication US20230140290A1, “SALICYLAMIDE DERIVATIVES AND RELATED METHODS OF MAKING” (THE BOARD OF REGENTS OF THE UNIVERSITY OF TEXAS SY, priority 2020, published 2023).

Molecules are shown by their SMILES. Values joined by “and” are separate entries in the source; they are usually repeats but may differ in a detail not shown here. Equal entries are not always repeated. A value given as a limit tells only on which side of the number the result lay.

As usually defined, the inhibition is the drop in the measured response relative to a control, in per cent. As usually defined, the IC50 is the midpoint of a concentration-inhibition curve.

In the case of `O=C(Nc1ccc(NCc2cccnc2Cl)cc1Cl)c1cc(Cl)ccc1O` [Compound 109, 5-Chloro-N-(2-chloro-4-(((2-chloropyridin-3-yl)methyl)amino)phenyl)-2-hydroxybenzamide], in series [1], the “Selectivity index (SI)” value is listed as 21.0 and the inhibition at 10 µM came out at 100%. For the same molecule, the CC50 at 48 h in series [2] was in the range of 65.3 to 126 µM. Moreover, the CC50 in series [3] worked out at 100 ± 29.8 µM.

Regarding `Nc1ccn(C[C@@H](CO)OCP(=O)(O)O)c(=O)n1` [cidofovir, reference compound], the “Selectivity index (SI)” value in series [1] came out at 7.5. Also, the half-inhibitory concentration (IC50) in series [1] (setting [8]) is 24.1 ± 5.9 µM. In series [2], the CC50 at 48 h worked out at 50.1 ± 9.8 µM.

For the molecule `O=C(Nc1ccc(NCc2cccc(Br)n2)cc1Cl)c1cc(Cl)ccc1O` [Compound 111, N-(4-(((6-Bromopyridin-2-yl)methyl)amino)-2-chlorophenyl)-5-chloro-2-hydroxybenzamide], the IC50 in series [1] (setting [9]) was 1.66 to 4.78 µM. Moreover, in series [1], the “Selectivity index (SI)” value amounted to 40.8 and the inhibition at 10 µM amounted to 100%. Further, the IC50 in series [1] ({}) came to 2.26 ± 0.05 µM. In series [2], this molecule registered a CC50 at 48 h of 65.3 to 126 µM. The CC50 in series [3] stood at 92.3 ± 9.5 µM.

As for `O=C(Nc1ccc(C(F)(F)F)cc1Cl)c1cc(Cl)ccc1O` [Compound 14, 5-Chloro-N-(2-chloro-4-(trifluoromethyl)phenyl)-2-hydroxybenzamide], the inhibition at 10 µM in series [1] worked out at 100%. Further, the IC50 was 0.08 µM in series [1] (setting [8]) and 1.67 ± 0.25 µM in series [4] (A549, read-out: IC50 Entry Assay (μM), HAdV5-GFP, high MOI, A549 cell line). For the same molecule, the inhibition at 50 µM in series [4] is 100%. In series [5], the “loss of inhibition when added between 5 and 10 min p.i.” value is 20%. The “amount of nuclear-associated HAdV genomes versus DMSO” value in series [6] (FIG. 3, 45 min post infection, concentrations by CC50 (2-50 μM)) is given as “partially inhibited”. Moreover, the “inhibition of HAdV-5 DNA replication (qPCR)” value in series [7] (FIG. 4, concentrations by CC50 (2-50 μM)) is recorded as “significant (p≤0.0001) inhibitory activity”.

`C[C@@H](NC(=O)c1cc(Cl)ccc1O)c1ccc(F)cc1` [Compound 49, (R)-5-Chloro-N-(1-(4-fluorophenyl)ethyl)-2-hydroxybenzamide]: in series [1], the “Selectivity index (SI)” value is 57.8 and 66.2; the inhibition at 10 µM amounted to 100%. The IC50 in series [1] (setting [8]) is 3.02 µM. Also, the CC50 at 48 h in series [2] was more than 200 µM.

As for `CC(C)(NC(=O)c1cc(Cl)ccc1O)c1ccc(F)cc1` [Compound 51, 5-Chloro-N-(2-(4-fluorophenyl)propan-2-yl)-2-hydroxybenzamide], in series [1], the “Selectivity index (SI)” value was 39.1 and 57.8; the inhibition at 10 µM turned out to be 100%. In addition, in series [1] (setting [8]), the IC50 amounted to 3.46 µM. Further, the CC50 at 48 h in series [2] is more than 200 µM.

Consider `O=C(Nc1ccc(NCc2cnccc2Cl)cc1Cl)c1cc(Cl)ccc1O` [Compound 110, 5-Chloro-N-(2-chloro-4-(((4-chloropyridin-3-yl)methyl)amino)phenyl)-2-hydroxybenzamide], for which the IC50 in series [1] (setting [9]) was in the range of 1.66 to 4.78 µM. Moreover, in series [1], the “Selectivity index (SI)” value was found to be 75.7 and the inhibition at 10 µM is 100%. The 50% inhibitory concentration (IC50) in series [1] ({}) amounted to 1.66 ± 0.42 µM. Besides, the CC50 at 48 h in series [2] lay within 65.3 to 126 µM. In addition, the CC50 in series [3] was 126 ± 25.1 µM.

On to `O=C(Nc1ccc(NCc2ccncc2)cc1Cl)c1cc(Cl)ccc1O` [Compound 108, 5-Chloro-N-(2-chloro-4-((pyridin-4-ylmethyl)amino)phenyl)-2-hydroxybenzamide], for which the half-maximal inhibitory concentration (IC50) in series [1] (setting [9]) fell in the range of 1.66 to 4.78 µM. In series [1], the “Selectivity index (SI)” value was 24.6 and the inhibition at 10 µM amounted to 100%. Moreover, the 50% inhibitory concentration (IC50) in series [1] ({}) worked out at 2.66 ± 0.17 µM. The molecule also had a CC50 at 48 h in series [2] of 65.3 to 126 µM. Moreover, the CC50 in series [3] amounted to 65.3 ± 5.7 µM.

Take `CC(CCO)Nc1ccc(NC(=O)c2cc(Cl)ccc2O)c(Cl)c1` (centres unmarked) [Compound 119, 5-Chloro-N-(2-chloro-4-((4-hydroxybutan-2-yl)amino)phenyl)-2-hydroxybenzamide]: in series [1], the “Selectivity index (SI)” value amounted to 166.7 and the inhibition at 10 µM was 96.9 ± 2.4%. Moreover, the 50% inhibitory concentration (IC50) in series [1] (setting [8]) turned out to be 1.2 µM. In series [3], the CC50 came to 200 µM. In addition, the inhibition at 50 µM in series [4] came out at 88.6%. For the same molecule, in series [6] (FIG. 5A, 45 min post-infection, 10-fold plaque IC50), the “amount of nuclear-associated HAdV genomes versus DMSO” value is “no significant differences”. Besides, the “inhibition of HAdV-5 DNA replication (qPCR)” value in series [7] (FIG. 6A, 10-fold plaque IC50) is “low inhibition”.
